The source made the active and inactive calls. The rule behind the calls is not given here.
What was measured:
[1] = molecular target: T1, Proteasome Macropain subunit MB1 (Homo sapiens) (UniProt P28074); test: Inhibition of chymotrypsin-like activity of 20S human proteasome assessed as […] at 25 ug/ml using Promega proteasome-Glo-3 substrate incubated for 15 mins by luminescence assay
T1 sequence (whole entry): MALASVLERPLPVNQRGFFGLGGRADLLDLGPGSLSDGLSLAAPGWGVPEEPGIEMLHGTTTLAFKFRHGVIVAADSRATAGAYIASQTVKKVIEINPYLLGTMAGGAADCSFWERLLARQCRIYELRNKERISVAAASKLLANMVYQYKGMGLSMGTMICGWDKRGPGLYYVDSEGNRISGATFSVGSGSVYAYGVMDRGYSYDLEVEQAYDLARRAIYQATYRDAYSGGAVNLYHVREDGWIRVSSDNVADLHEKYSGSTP

[2] = molecular target: T2, Proteasome Macropain subunit MB1 (Homo sapiens, UniProt P28074); test: Inhibition of chymotrypsin-like activity of 20S human proteasome assessed as […] at using Promega proteasome-Glo-3 substrate incubated for 15 mins by luminescence assay
T2 sequence (P28074 whole entry): T1 sequence (whole entry)

Row | Structure (SMILES) | inhibition [1] | IC50 [2] [µM]
1 | CCN(CC)c1ccc(-n2nc(-c3ccc(OCCCC[P+](C4CCCCC4)(C4CCCCC4)C4CCCCC4)cc3)c3ccccc3c2=O)cc1 | 98.5% | 13.3
2 | CCN(CC)c1ccc(-n2nc(-c3ccc(OCCCCN4CCCC4)cc3)c3ccccc3c2=O)cc1 | 13.2% | 
3 | CCN(CC)c1ccc(-n2nc(-c3ccc(OCCCC[P+](c4ccccc4)(c4ccccc4)c4ccccc4)cc3)c3ccccc3c2=O)cc1 | 99.1% | 10.2
4 | CCN(CC)c1ccc(-n2nc(-c3ccc(OCCCC[n+]4ccn(C)c4)cc3)c3ccccc3c2=O)cc1 | 5.8% | 
5 | O=c1c2ccccc2c(-c2ccc(OCCCC[P+](c3ccccc3)(c3ccccc3)c3ccccc3)cc2)nn1CC1CCCCC1 | 84.9% | 16.1
6 | O=c1c2ccccc2c(-c2ccc(OCCCC[P+](c3ccccc3)(c3ccccc3)c3ccccc3)cc2)nn1CC1CC1 | 48.2% | 23
7 | CCn1nc(-c2ccc(OCCCC[P+](c3ccccc3)(c3ccccc3)c3ccccc3)cc2)c2ccccc2c1=O | inactive | 
8 | O=c1c2ccccc2c(-c2ccc(OCCCC[P+](c3ccccc3)(c3ccccc3)c3ccccc3)cc2)nn1CC1CCC1 | 70.5% | 21.5
9 | Cn1nc(-c2ccc(OCCCC[P+](c3ccccc3)(c3ccccc3)c3ccccc3)cc2)c2ccccc2c1=O | inactive | 
10 | O=c1c2ccccc2c(-c2ccc(OCCCC[P+](c3ccccc3)(c3ccccc3)c3ccccc3)cc2)nn1-c1ccccc1 | 99.5% | 9.88
11 | CC(C)Cn1nc(-c2ccc(OCCCC[P+](c3ccccc3)(c3ccccc3)c3ccccc3)cc2)c2ccccc2c1=O | 52.4% | 26
12 | CCN(CC)c1ccc(-n2nc(-c3ccc(OCCCCP(c4ccccc4)c4ccccc4)cc3)c3ccccc3c2=O)cc1 | 19.6% | 
13 | O=c1c2ccccc2c(-c2ccc(OCCCC[P+](c3ccccc3)(c3ccccc3)c3ccccc3)cc2)nn1-c1cccs1 | 93.2% | 17.6
14 | CCN(CC)c1ccc(-n2nc(-c3ccc(OCCCCN4CCOCC4)cc3)c3ccccc3c2=O)cc1 | 5.1% | 
15 | CCN(CC)c1ccc(-n2nc(-c3ccc(OCCCC[n+]4ccccc4)cc3)c3ccccc3c2=O)cc1 | 8.6% | 
16 | O=c1c2ccccc2c(-c2ccc(OCCCC[P+](c3ccccc3)(c3ccccc3)c3ccccc3)cc2)nn1Cc1ccccc1 | 80.9% | 11.9
17 | CCCn1nc(-c2ccc(OCCCC[P+](c3ccccc3)(c3ccccc3)c3ccccc3)cc2)c2ccccc2c1=O | 12.1% | 
18 | O=c1c2ccccc2c(-c2ccc(OCCCC[P+](c3ccccc3)(c3ccccc3)c3ccccc3)cc2)nn1-c1ccc2ccccc2c1 | 98.7% | 13.8
19 | CCCCn1nc(-c2ccc(OCCCC[P+](c3ccccc3)(c3ccccc3)c3ccccc3)cc2)c2ccccc2c1=O | 35.8% | 
20 | CNc1ccc(-n2nc(-c3ccc(OCCCC[P+](c4ccccc4)(c4ccccc4)c4ccccc4)cc3)c3ccccc3c2=O)cc1 | 94.3% | 14.2
21 | CCN(CC)c1ccc(-n2nc(-c3ccc(OCCCCBr)cc3)c3ccccc3c2=O)cc1 | inactive | 
22 | CCN(CC)c1ccc(-n2nc(-c3ccc(OCCCCN4CCCCC4)cc3)c3ccccc3c2=O)cc1 | 8% | 
23 | CCN(CC)c1ccc(-n2nc(-c3ccc(OCCCC[N+](CC)(CC)CC)cc3)c3ccccc3c2=O)cc1 | 10.3% | 

Reference: ChEMBL document CHEMBL3797130, “Development of novel proteasome inhibitors based on phthalazinone scaffold” (Bioorg Med Chem Lett, 2016)
